Each structure is given as a SMILES string.

Take `CN(O)N=Nc1ccc(C(N)=O)cc1`: the logP is -0.22.

For the compound `CCCCCCCCN(C)N=Nc1ccc(C(=O)O)cc1`, the logP was found to be 2.96.

Take `CCCCCCCN(C)/N=N/c1ccc(C(N)=O)cc1`: the logP amounted to 4.15.

`CCCCCCCCCCCCN(C)N=Nc1ccc(C(N)=O)cc1` came in with a logP of 6.58.

`CCCCCCCN(C)N=Nc1ccc(C(=O)O)cc1` had a logP of 2.37.

`CCCCCCN(C)N=Nc1ccc(C(N)=O)cc1` had a logP of 3.59.

Compound `CCCCCCCCCCCCCCCCCCN(C)N=Nc1ccc(C(=O)O)cc1` showed a logP of 7.6.

For the compound `CCN(C)N=Nc1ccc(C(=O)O)cc1`, the logP was determined as 0.03.

In turn, `CC(C)N(C)N=Nc1ccc(C(=O)O)cc1` yielded a logP of 0.42.

Consider `CCCCCCCCCCCCN(C)N=Nc1ccc(C(=O)O)cc1`, for which the logP was found to be 4.77.

For `CN(C)/N=N/c1ccc(C(N)=O)cc1`, the logP came to 1.17.

`CN(CCO)/N=N/c1ccc(C(N)=O)cc1` gave a logP of 0.26.

`C=CCN(C)N=Nc1ccc(C(=O)O)cc1` registered a logP of 0.38.

On to `CN(C)/N=N/c1ccc(C(=O)O)cc1`, for which the logP was -0.29.

With `C#CCN(C)N=Nc1ccc(C(=O)O)cc1`, the logP was -0.13.

As for `CN(Cc1ccccc1)N=Nc1ccc(C(=O)O)cc1`, the logP came to 0.94.

By logP is commonly meant a log measure of how a compound divides between an organic and an aqueous phase. A high value points to a more lipophilic compound.

These data come from the SangsterLogP compilation.
